{"source": "paper PMC6350621", "about": "“Small-molecules that covalently react with a human prolyl hydroxylase – towards activity modulation and substrate capture” (Chemical Communications (Cambridge, England), 2018)", "key": {"PHD2 (residues 181-426)": {"molecular_target": "PHD2 (residues 181-426) (Homo sapiens, UniProt Q9GZT9)", "sequence (Q9GZT9 181-426)": "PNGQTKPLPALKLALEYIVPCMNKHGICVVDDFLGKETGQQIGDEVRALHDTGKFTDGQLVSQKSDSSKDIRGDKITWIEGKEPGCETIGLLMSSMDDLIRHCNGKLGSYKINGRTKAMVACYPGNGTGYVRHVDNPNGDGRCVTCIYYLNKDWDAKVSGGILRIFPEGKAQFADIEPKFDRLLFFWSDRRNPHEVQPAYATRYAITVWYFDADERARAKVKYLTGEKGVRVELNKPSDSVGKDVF", "test": "biochemical"}, "PHD2": {"molecular_target": "T1, PHD2 (Homo sapiens, UniProt Q9GZT9)", "T1 construct": "PHD2_181–426 (hereafter PHD2); His6 (N, cleaved yes); made in house; host or cells: bacterial culture (2x TY, kanamycin, IPTG)", "T1 sequence (Q9GZT9 181-426)": "as above", "test": "Denaturing ESI-MS of crosslinking with PHD2", "type": "binding", "protocol": "In contrast to the likely imine adducts formed with 1/2, the PHD2·Fe·3 covalent adduct was stable to the acidic conditions of denaturing MS. […] The crosslinking could be fitted by a one-site decay function (R^2 = 0.99, GraphPad Prism), consistent with a quasi intramolecular reaction of the PHD2·Fe·3 non-covalent species to give a covalent adduct (Fig. S5, ESI ^†).\nFig. S7 Time-course analysis of crosslinking between PHD2 and 3. PHD2 (20 µM) was incubated (37 °C, 4 h) with FeSO4 (20 µM) and 3 (30 µM). Samples were taken at regular intervals, quenched by acidification and the ratio of covalent crosslinking analysed by ESI-MS under denaturing conditions. Above: overlaid deconvoluted mass spectra; Below: variation of crosslinking with time. Data represent mean intensities of repeats (n=3), error bars show 1 standard […]\n(§1) Fig. S8 Temperature dependence of the rate of crosslinking of 3 with PHD2. PHD2 (20 µM) was incubated with equimolar Fe(II) and 3 in buffer (50 mM Tris, 150 mM NaCl, pH 7.5) at 4, 20 and 37 °C. The ratio of crosslinking after 1, 2, and 4 h was determined by ESI-MS under denaturing conditions (n = 2), error bars represent 1 standard deviation.\nFig. S9 Ratio of crosslinked PHD2.3 before evaluation of catalytic activity.\n100 μM. FeSO4·7H2O was dissolved in 20 mM HCl at a concentration of 100 mM. This solution was then diluted with MilliQ purified water to give a final working concentration of 100 μM. The protein was mixed with the Fe(II) solution and the inhibitor solution to give final concentrations of 20 μM PHD2, 20 μM Fe(II), and 20 μM inhibitor. The resultant solution was incubated for the appropriate time (specified in the text) at 37 […]\n(5 min or 20 min) at 37 °C. After incubation, the samples were immediately analysed by ESI-MS.\n1.1.2 Denaturing mass spectrometry\nIntact protein masses were obtaine by liquid chromatography-mass spectrometry (LC-MS) using a Waters LCT premier XE time-of-flight mass spectrometer interfaced with a Waters 1525u HPLC pump and Waters […]\nThe protein sample (10 µM, 5 µl) was injected onto a Chromolith FastGradient RP-18 2x50mm Monolithic reverse phase HPLC column and eluted at 0.4 ml.min-1 using a gradient system from Solvent A (water, 0.1 % (v/v) formic acid) to Solvent B (acetonitrile, 0.1 % (v/v) formic acid) according to the following conditions:\nTime (Min) %A %B Flow Rate (ml.min-1)\nThe eluent was transferred directly to the mass spectrometer. The following MS parameters were used:\nCapillary voltage – 3,000 V; Sample cone voltage – 50 V; Extraction cone voltage – 1V; Desolvation temperature – 250 °C; Source temperature – 100 °C; Cone gas flow – 100 l.hour-1; Desolvation gas flow (N2) – 830 l.hour-1. Data were processed with MassLynx™ v4.0 (Waters) and protein peaks were deconvoluted using the Maximum Entropy method (MaxEnt1).\n1.1.3 Analysis of protein activity by peptide turnover assay using MALDI-MS detection2 PHD2 (20 µM), Fe(II) (20 µM) and the inhibitor (30 µM) in buffer (15 mM ammonium acetate, pH 7.5) were incubated for the appropriate time (specified in the text) at 37 °C. Subsequently, the enzyme (1.5 µL, final […]\nascorbate (1 mM), 2-oxoglutarate (100 µM) and the respective inhibitor (30 µM) in buffer (50 mM Tris, 150 mM NaCl). In the positive control no inhibitor was added. The resultant mixture was incubated at 37 °C and samples ([…]) were taken at regular intervals and quenched by addition of 1% (v/v) aqueous formic acid ([…]). Samples were analysed using a MALDI micro MX mass spectrometer (Waters) in the reflectron positive ion mode. Data were processed using MassLynx v4.0. The yield of crosslinking was determined by comparison of the signal intensities for crosslinked and unmodified protein.\n1.1.4 Analysis of protein activity by peptide turnover assay using the AlphaScreen™ 3 The assay consisted of three parts: pre-incubation with inhibitor, the PHD2 hydroxylation reaction, and incubation with the AlphaScreen™ bead mix."}, "PHD2_181–402": {"molecular_target": "T2, PHD2_181–402 (Homo sapiens, UniProt Q9GZT9)", "T2 construct": "C-terminal truncated PHD2 (PHD2_181–402); His6 (N, cleaved yes); made in house; host or cells: bacterial culture (2x TY, kanamycin, IPTG)", "T2 sequence (Q9GZT9 181-402)": "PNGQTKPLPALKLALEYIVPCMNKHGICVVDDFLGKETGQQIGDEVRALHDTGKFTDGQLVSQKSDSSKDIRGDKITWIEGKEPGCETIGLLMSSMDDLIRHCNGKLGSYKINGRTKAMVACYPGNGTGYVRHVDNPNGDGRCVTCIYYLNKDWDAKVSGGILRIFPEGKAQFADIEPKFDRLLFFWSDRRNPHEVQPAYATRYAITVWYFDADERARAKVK", "test": "Non-denaturing ESI-MS crosslinking, C-terminal truncated PHD2", "type": "binding", "conditions": "equimolar Fe(II) and compound, 3 h, 37 °C, 200 V", "protocol": "The site of crosslinking of 3 was investigated using protein variants. First, 3 was incubated with C-terminal truncated PHD2 (PHD2_181–402) and a loop deletion variant (deletion of residues 238–250, PHD2Δ). […] Thus, 3 was incubated with PHD2 constructs truncated at residues 402, 410, 414 and 418. […] Crosslinking experiments with PHD2 R411M implied that R411 is not directly involved in crosslinking (Fig. S11, ESI ^†).\nFig. 3 (A) Non-denaturing ESI-MS data on the flexible loop truncated (top) and C-terminal tail tuncated (bottom) versions of PHD2 in the presence of equimolar Fe(II) and 3 (3 hour incubation, 37 °C. Cone voltage: 200 V). A = [PHD2Δ + Fe], B = [PHD2Δ + Fe + 3], C = [PHD2_181–402 + Fe], D = [PHD2_181–402 + Fe + 3]. (B) MS/MS spectrum of the trypsin derived peptide 403[…]411 crosslinked to 3 identified K408 as the site of crosslinking.\nas §1\nFig. S9 Ratio of crosslinked PHD2.3 before evaluation of catalytic activity. Labelled peaks correspond to: (A): PHD2, […]"}}}
{"compound": "C=CC(=O)Nc1cccc(C(=O)NCC(=O)O)c1O", "note": "[compound 3]", "values": [{"measurement": "IC50", "setting": "PHD2 (residues 181-426)", "result": "> 2000", "unit": "µM"}, {"measurement": "conversion to crosslinked adduct at 4 °C", "setting": "PHD2; 4 °C", "result": "little conversion"}, {"measurement": "extent of crosslinking, 0 h pre-incubation", "setting": "PHD2; PHD2 pre-incubated with compound 0 h", "result": 0, "unit": "%"}, {"measurement": "extent of crosslinking, 1 h pre-incubation", "setting": "PHD2; PHD2 pre-incubated with compound 1 h", "result": 50, "unit": "%"}, {"measurement": "extent of crosslinking, 2 h pre-incubation", "setting": "PHD2; PHD2 pre-incubated with compound 2 h", "result": 66, "unit": "%"}, {"measurement": "extent of crosslinking, 4 h pre-incubation", "setting": "PHD2; PHD2 pre-incubated with compound 4 h", "result": 90, "unit": "%"}, {"measurement": "conversion to crosslinked PHD2·Fe·3 after 3 h", "setting": "PHD2; timecourse, 37 °C, 3 h, PHD2 20 µM, FeSO4 20 µM, compound 30 µM", "result": "near complete conversion"}, {"measurement": "crosslinking with C-terminally truncated PHD2", "setting": "PHD2_181–402", "result": "near completely absent"}]}
